Laboratory results from patent US9695155B2, “Herbicidal substituted pyrimidinyloxy benzene compounds” (E. I. DU PONT DE NEMOURS AND COMPANY, priority 2013, dated 2017).

Experiments:
Experiment in all cases: Test F preemergence
Settings in all cases: 21 days, scale 0 to 100
ragweed = type: in vivo, Ambrosia elatior
Text: (§1) Seeds of plant species selected from bermudagrass (Cynodon dactylon), surinam grass (Brachiaria decumbens), large (Lg) crabgrass (Digitaria sanguinalis), crabgrass, naked (naked crabgrass, Digitaria nuda), foxtail, green (green foxtail, Setaria viridis), johnsongrass (Sorghum halepense), kochia (Kochia scoparia), morningglory (pitted morningglory, Ipomoea lacunosa), nutsedge, purple (purple nutsedge, Cyperus rotundus), ragweed (common ragweed, Ambrosia elatior), mustard, black (black mustard, Brassica nigra), guineagrass (Panicum maximum), dallisgrass (Paspalum dilatatum), barnyardgrass (Echinochloa crus-galli), sandbur (southern sandbur, Cenchrus echinatus), sowthistle (common sowthistle, Sonchus oleraceous), Italian ryegrass (Lolium multiflorum), signalgrass (broadleaf signalgrass, Brachiaria platyphylla), dayflower (Virginia (VA) dayflower, Commelina virginica), bluegrass (annual bluegrass, Poa annua), quackgrass (Elytrigia repens), mallow (common mallow, Malva sylvestris), buckwheat, wild (wild buckwheat, Polygonum convolvulus), leafy spurge (Euphorbia esula), chickweed (common chickweed, Stellaria media), wild poinsettia (Euphorbia heterophylla), and pigweed (Amaranthus retroflexus) were planted into a blend of loam soil and sand and treated preemergence with test chemicals formulated in a non-phytotoxic solvent mixture which included a surfactant.
(§2) Treated plants and controls were maintained in a greenhouse for 21 days, after which time all species were compared to controls and visually evaluated. Plant response ratings, summarized in Table F, are based on a scale of 0 to 100 where 0 is no effect and 100 is complete control. A dash (-) response means no test result.

guineagrass = type: in vivo, Panicum maximum
Text: as §1, §2

quackgrass = type: in vivo, Elytrigia repens
Text: as §1, §2

bermudagrass = type: in vivo, Cynodon dactylon
Text: as §1, §2

surinam grass = type: in vivo, Brachiaria decumbens
Text: as §1, §2

N#Cc1cccc(Oc2ncc(F)cn2)c1-n1cc(C(F)(F)F)cn1 [Compound 79, 3-[(5-fluoro-2-pyrimidinyl)oxy]-2-[4-(trifluoromethyl)-1H-pyrazol-1-yl]benzonitrile]
Plant response rating, Ragweed (ragweed; 16 g ai/ha): 25 | Plant response rating, Ragweed (ragweed; 31 g ai/ha): 70 | Plant response rating, Ragweed (ragweed; 62 g ai/ha): 98 | Plant response rating, Ragweed (ragweed; 125 g ai/ha): 100 | Plant response rating, Ragweed (ragweed; 250 g ai/ha): 100 | Plant response rating, Guineagrass (guineagrass; 16 g ai/ha): 100 | Plant response rating, Guineagrass (guineagrass; 31 g ai/ha): 100 | Plant response rating, Guineagrass (guineagrass; 62 g ai/ha): 100 | Plant response rating, Guineagrass (guineagrass; 125 g ai/ha): 100 | Plant response rating, Guineagrass (guineagrass; 250 g ai/ha): 100 | Plant response rating, Quackgrass (quackgrass; 16 g ai/ha): 40 | Plant response rating, Quackgrass (quackgrass; 31 g ai/ha): 70 | Plant response rating, Quackgrass (quackgrass; 62 g ai/ha): 95 | Plant response rating, Quackgrass (quackgrass; 125 g ai/ha): 98 | Plant response rating, Quackgrass (quackgrass; 250 g ai/ha): 100 | Plant response rating, Bermudagrass (bermudagrass; 16 g ai/ha): 98 | Plant response rating, Bermudagrass (bermudagrass; 31 g ai/ha): 100 | Plant response rating, Bermudagrass (bermudagrass; 62 g ai/ha): 100 | Plant response rating, Bermudagrass (bermudagrass; 125 g ai/ha): 100 | Plant response rating, Bermudagrass (bermudagrass; 250 g ai/ha): 100 | Plant response rating, Surinam Grass (surinam grass; 16 g ai/ha): 75 | Plant response rating, Surinam Grass (surinam grass; 31 g ai/ha): 90 | Plant response rating, Surinam Grass (surinam grass; 62 g ai/ha): 95 | Plant response rating, Surinam Grass (surinam grass; 125 g ai/ha): 100 | Plant response rating, Surinam Grass (surinam grass; 250 g ai/ha): 100

N#Cc1cccc(Oc2ncc(Cl)cn2)c1-n1cc(OC(F)F)cn1 [Compound 97]
Plant response rating, Ragweed (ragweed; 16 g ai/ha): 10 | Plant response rating, Ragweed (ragweed; 31 g ai/ha): 75 | Plant response rating, Ragweed (ragweed; 62 g ai/ha): 85 | Plant response rating, Ragweed (ragweed; 125 g ai/ha): 95 | Plant response rating, Ragweed (ragweed; 250 g ai/ha): 100 | Plant response rating, Guineagrass (guineagrass; 16 g ai/ha): 100 | Plant response rating, Guineagrass (guineagrass; 31 g ai/ha): 100 | Plant response rating, Guineagrass (guineagrass; 62 g ai/ha): 100 | Plant response rating, Guineagrass (guineagrass; 125 g ai/ha): 100 | Plant response rating, Guineagrass (guineagrass; 250 g ai/ha): 100 | Plant response rating, Quackgrass (quackgrass; 16 g ai/ha): 0 | Plant response rating, Quackgrass (quackgrass; 31 g ai/ha): 35 | Plant response rating, Quackgrass (quackgrass; 62 g ai/ha): 50 | Plant response rating, Quackgrass (quackgrass; 125 g ai/ha): 95 | Plant response rating, Quackgrass (quackgrass; 250 g ai/ha): 100 | Plant response rating, Bermudagrass (bermudagrass; 16 g ai/ha): 80 | Plant response rating, Bermudagrass (bermudagrass; 31 g ai/ha): 95 | Plant response rating, Bermudagrass (bermudagrass; 62 g ai/ha): 100 | Plant response rating, Bermudagrass (bermudagrass; 125 g ai/ha): 100 | Plant response rating, Bermudagrass (bermudagrass; 250 g ai/ha): 100 | Plant response rating, Surinam Grass (surinam grass; 16 g ai/ha): 0 | Plant response rating, Surinam Grass (surinam grass; 31 g ai/ha): 10 | Plant response rating, Surinam Grass (surinam grass; 62 g ai/ha): 50 | Plant response rating, Surinam Grass (surinam grass; 125 g ai/ha): 90 | Plant response rating, Surinam Grass (surinam grass; 250 g ai/ha): 100
